Measurements taken from patent publication US12680078B2, “Differentiation of pluripotent stem cells and cardiac progenitor cells into striated cardiomyocyte fibers using laminins LN-511, LN-521 and LN-221” (National University of Singapore, priority 2013, dated 2026).
pEC50: −log10 of the molar value. Where a name gives a salt, the structure may show the parent alone. Read-outs that look alike come from different tables or passages of the source.

How the values were obtained:
cardiomyocytes [1] = test: Cell viability assay (ATP content) on hESC-derived cardiomyocytes; type: cell-based; conditions: Homo sapiens, Cardiomyocyte, read-out: EC50 (cell viability, ATP content)
Procedure: FIG. 12G is a graph showing ATP content (relative light units×1000) versus log concentration of valinomycin. The y-axis runs from 0 to 5 in increments of 1. The x-axis runs from −7 to −3 in increments of 1.
FIG. 12H is a graph showing ATP content (relative light units×1000) versus log concentration of emetine dihydrochloride. The y-axis runs from 0 to 6 in increments of 2. The x-axis runs from −8 to −3 in increments of 1.
(§1) Cellular responses to adrenergic stimulation were also tested with MEA.

cardiomyocytes [2] = test: Multi-electrode assay (MEA) of cellular responses to adrenergic stimulation; type: cell-based, human; conditions: upon exposure
Procedure: To further characterize the functionality of the cardiomyocytes, single cell patch clamp and multi-electrode assay (MEA) were utilized to measure their action potential. 13.60% mimicked the nodal subtype, 22.20% mimicked the atrial subtype, and 64.20% mimicked the heart ventricle subtype (see FIG. 8(C)).
as §1

Compound: CC[C@H]1CN2CCc3cc(OC)c(OC)cc3[C@@H]2C[C@@H]1C[C@H]1NCCc2cc(OC)c(OC)cc21 [emetine dihydrochloride]
- pEC50 (cardiomyocytes [1]; hESC-derived cardiomyocytes, FIG. 12G/12H): 5.22

Compound: CC(C)NCC(O)c1ccc(O)c(O)c1 (stereo not shown) [isoproterenol]
- heart rate (cardiomyocytes [2]): increased heart rate

Compound: CC(C)NCC(O)c1ccc(NS(C)(=O)=O)cc1 (stereo not shown) [Sotalol]
- corrected field potential duration (cFPD) (cardiomyocytes [2]): shortened corrected field potential duration (cFPD)

Compound: CC(C)[C@@H]1NC(=O)[C@H](C)OC(=O)[C@@H](C(C)C)NC(=O)[C@@H](C(C)C)OC(=O)[C@H](C(C)C)NC(=O)[C@H](C)OC(=O)[C@@H](C(C)C)NC(=O)[C@@H](C(C)C)OC(=O)[C@H](C(C)C)NC(=O)[C@H](C)OC(=O)[C@@H](C(C)C)NC(=O)[C@@H](C(C)C)OC1=O [valinomycin]
- pEC50 (cardiomyocytes [1]): 4.88
